Structures can show the parent of a compound that is named as a salt. Where two headings read alike, the source gives them in different places.
How the values were obtained:
[1] = test system: HCT116 cell line; assay: Anti-proliferative activity, Alamar Blue assay; assay type: cell-based, human
Experimental: The anti-proliferative activities of compounds of the invention can be determined by measuring the ability of the compounds to inhibition of cell growth in a number of cell lines such as the human colon cancer cell line HCT116. […] The method is based on the ability of viable cells to reduce resazurin to its fluorescent product resorufin. […] The number of viable cells is determined by Alamar Blue assay as before. Cell lines can be obtained from the ECACC (European Collection of cell Cultures).

[2] = molecular target: T1, human Hsp90α N-terminal domain (Homo sapiens, UniProt P07900); assay: Isothermal titration calorimetry (ITC) binding; details: 25 mM Tris, 100 mM NaCl, 1 mM MgCl2, 1 mM TCEP, 5% DMSO, pH 7.4
T1 construct: Cloning, expression, and purification of the Human Hsp90α N-terminal domain were performed according to published methods; made in house
Experimental: The ability of the compounds of the invention to bind to human Hsp90 proteins was determined using isothermal titration calorimetry.
Isothermal titration calorimetry (ITC) experiments were performed with a VP-ITC titration calorimeter (Microcal Inc., Northampton, Mass., USA). […] All solutions were filtered and degassed prior to a titration being carried out. The enthalpy change resulting from each injection of ligand was obtained through integration of the calorimetric signal. Data were analysed using Origin 7.0 (Microcal Software Inc., Northampton, Mass.). Heats of dilution were estimated using the final injections of each individual titration and subtracted before data fitting. Different ITC experimental formats were employed in order to obtain compound dissociation constants (Kd's) over a wide range of affinities. […] In this type of experiment the stoichiometry parameter (N) was locked at 1 for data fitting. […] For the majority of these experiments the protein concentration in the calorimetric cell was in the range […] and the ligand concentration in the injection syringe ranged from […].

[3] = HCT-116, human colon cancer cell line HCT116, 72 hours with compound, read-out: IC50

SMILES	Kd [2]	IC50 [1, 3]	IC50 ([1]; Homo sapiens, HCT-116, 72 h)
CC(C)c1cc(C(=O)N2Cc3ccccc3C2)c(O)cc1O [Example 5]	–	–	< 1 µM
CC(C)c1cc(C(=O)N2Cc3ccccc3C2)ccc1O [Example 10, (1,3-Dihydro-isoindol-2-yl)-(4-hydroxy-3-isopropyl-phenyl)-methanone]	< 0.1 µM	–	–
O=C(c1cc(Br)c(O)cc1O)N1Cc2ccccc2C1 [Example 19, (5-Bromo-2,4-dihydroxy-phenyl)-(1,3-dihydro-isoindol-2-yl)-methanone]	–	< 1 µM	–
CC(C)c1cc(C(=O)N2CCc3ccccc3C2)c(O)cc1O [Example 38, (3,4-dihydro-1H-isoquinolin-2-yl)-(2,4-dihydroxy-5-isopropyl-phenyl)-methanone]	< 0.1 µM	< 1 µM	–
CC(C)NCCOc1ccc2c(c1)CN(C(=O)c1cc(C(C)C)c(O)cc1O)C2 [Example 48, (2,4-dihydroxy-5-isopropyl-phenyl)-[5-(2-isopropylamino-ethoxy)-1,3-dihydro-isoindol-2-yl]-methanone]	< 0.1 µM	< 1 µM	–
CC(C)c1cc(C(=O)N2Cc3ccc(OCCNC(=O)CN4CCOCC4)cc3C2)c(O)cc1O [Example 49]	< 0.1 µM	< 1 µM	–
CC(C)c1cc(C(=O)N2Cc3ccc(N4CCC(N5CCN(C)CC5)CC4)cc3C2)c(O)cc1O [Example 51, (2,4-dihydroxy-5-isopropyl-phenyl)-{5-[4-(4-methyl-piperazin-1-yl)-piperidin-1-yl]-1,3-dihydro-isoindol-2-yl}-methanone]	< 0.1 µM	< 1 µM	–
CC(C)c1cc(C(=O)N2Cc3ccc(C(=O)N4CCNCC4)cc3C2)c(O)cc1O [Example 54, (2,4-dihydroxy-5-isopropyl-phenyl)-[5-(piperazine-1-carbonyl)-1,3-dihydro-isoindol-2-yl]-methanone hydrochloride]	< 0.1 µM	–	< 1 µM
CC(C)c1cc(C(=O)N2Cc3ccc(CN4CCN(C)CC4)cc3C2)c(O)cc1O [Example 55, (2,4-dihydroxy-5-isopropyl-phenyl)-[5-(4-methyl-piperazin-1-ylmethyl)-1,3-dihydro-isoindol-2-yl]-methanone]	< 0.1 µM	< 1 µM	–
CC(C)c1cc(C(=O)N2Cc3ccc(N4CCN(C(C)C)CC4)cc3C2)c(O)cc1O [Example 62, (2,4-Dihydroxy-5-isopropyl-phenyl)-[5-(4-isopropyl-piperazin-1-yl)-1,3-dihydro-isoindol-2-yl]-methanone]	< 0.1 µM	< 1 µM	–
CC(C)c1cc(C(=O)N2Cc3cc(O)c(Cl)cc3C2)c(O)cc1O [Example 74, (5-chloro-6-hydroxy-1,3-dihydro-isoindol-dihydroxy-5-isopropyl-phenyl)-methanone]	< 0.1 µM	< 1 µM	–
CN1CCN(c2ccc3c(c2)CN(C(=O)c2cc(Cl)c(O)cc2O)C3)CC1 [Example 75, (5-Chloro-2,4-dihydroxy-phenyl)-[5-(4-methyl-piperazin-1-yl)-1,3-dihydro-isoindol-2-yl]-methanone]	< 0.1 µM	< 1 µM	–

Second part, led by results:

Kd [2]	IC50 [1, 3]	SMILES	IC50 ([1]; Homo sapiens, HCT-116, 72 h)
< 1 µM	–	CC(C)(C)c1cc(C(=O)N2CCc3ccccc3C2)ccc1O [Example 11, (3-tert-Butyl-4-hydroxy-phenyl)-(3,4-dihydro-1H-isoquinolin-2-yl)-methanone]	–
< 0.1 µM	< 1 µM	COCCOCCOc1cccc2c1CN(C(=O)c1cc(C(C)C)c(O)cc1O)C2 [Example 21, (2,4-Dihydroxy-5-isopropyl-phenyl)-{4-[2-(2-methoxy-ethoxy)-ethoxy]-1,3-dihydro-isoindol-2-yl}methanone]	–
< 0.1 µM	< 1 µM	COc1cc2c(cc1Cl)CN(C(=O)c1cc(C(C)C)c(O)cc1O)C2 [Example 33, (5-chloro-6-methoxy-1,3-dihydro-iso-indol-2-yl)-(2,4-dihydroxy-5-isopropyl-phenyl)-methanone]	–
< 0.1 µM	< 1 µM	CC(C)c1cc(C(=O)N2CC3CC2CO3)c(O)cc1O (stereo not shown) [Example 37, (2,4-dihydroxy-5-isopropyl-phenyl)-(2-oxa-5-aza-bicyclo[2.2.1]hept-5-yl)-methanone]	–
< 0.1 µM	< 1 µM	CC(C)c1cc(C(=O)N2Cc3ccc(N)cc3C2)c(O)cc1O [Example 39, (5-amino-1,3-dihydro-isoindol-2-yl)-(2,4-dihydroxy-5-isopropyl-phenyl)-methanone]	–
< 0.1 µM	< 1 µM	COc1ccc2c(c1)CN(C(=O)c1cc(C(C)C)c(O)cc1O)C2 [Example 40, (2,4-dihydroxy-5-isopropyl-phenyl)-(5-methoxy-1,3-dihydro-isoindol-2-yl)-methanone]	–
< 0.1 µM	< 1 µM	COC(=O)c1ccc2c(c1)CN(C(=O)c1cc(C(C)C)c(O)cc1O)C2 [Example 43, 2-(2,4-dihydroxy-5-isopropyl-benzoyl)-2,3-dihydro-1H-isoindole-5-carboxylic acid methyl ester]	–
< 0.1 µM	–	CC(C)c1cc(C(=O)N2Cc3ccc(C(=O)O)cc3C2)c(O)cc1O [Example 44, 2-(2,4-dihydroxy-5-isopropyl-benzoyl)-2,3-dihydro-1H-isoindole-5-carboxylic acid]	–
< 1 µM	< 1 µM	CC(C)c1cc(C(=O)N2Cc3ccc(-c4ccc(N5CCNCC5)cc4)cc3C2)c(O)cc1O [Example 52, (2,4-dihydroxy-5-isopropyl-phenyl)-[5-(4-piperazin-1-yl-phenyl)-1,3-dihydro-isoindol-2-yl]-methanone]	–
< 0.1 µM	< 1 µM	CC(C)c1cc(C(=O)N2Cc3ccc(N4CCN(CCO)CC4)cc3C2)c(O)cc1O [Example 59, (2,4-Dihydroxy-5-isopropyl-phenyl)-{5-[4-(2-hydroxy-ethyl)-piperazin-1-yl]-1,3-dihydro-isoindol-2-yl}-methanone]	–
< 0.1 µM	< 1 µM	CC(C)c1cc(C(=O)N2Cc3ccc(N4CCC(N5CCOCC5)CC4)cc3C2)c(O)cc1O [Example 60, (2,4-Dihydroxy-5-isopropyl-phenyl)-[5-(4-morpholin-4-yl-piperidin-1-yl)-1,3-dihydro-isoindol-2-yl]-methanone]	–
< 0.1 µM	< 1 µM	CC(C)c1cc(C(=O)N2Cc3cccc(NC4CCNCC4)c3C2)c(O)cc1O [Example 67, (2,4-dihydroxy-5-isopropyl-phenyl)-[4-(piperidin-4-ylamino)-1,3-dihydro-isoindol-2-yl]-methanone]	–
< 0.1 µM	< 1 µM	CC(C)c1cc(C(=O)N2Cc3ccc(CN4CCCCC4)cc3C2)c(O)cc1O [Example 72, (2,4-Dihydroxy-5-isopropyl-phenyl)-(5-piperidin-1-ylmethyl-1,3-dihydro-isoindol-2-yl)-methanone]	–
< 0.1 µM	–	CC(C)c1cc(C(=O)N2Cc3ccc(C4(O)CCNCC4)cc3C2)c(O)cc1O [Example 73, (2,4-Dihydroxy-5-isopropyl-phenyl)-[5-(4-hydroxypiperidin-4-yl)-1,3-dihydro-isoindol-2-yl]-methanone]	–

Source: patent US8101648B2, “Hydroxybenzamide derivatives and their use as inhibitors of HSP90” (Astex Therapeutics, Ltd., priority 2005, dated 2012)
